Results: US20240336638A1, “IMIDAZOLE COMPOUND, AND INTERMEDIATE AND APPLICATION THEREOF” (priority 2021, published 2024)

What was measured:
[1] = system: AA-induced platelet aggregation; assay: Inhibitory effect on AA-induced platelet aggregation in rats in vitro (washed platelets); type: cell-based, rat; details: 1*10^−4 M
Method: Several experimental groups were established, including a blank control group, an AA (arachidonic acid) model control group, and various test compounds. Each test compound had three concentration groups: 10^−3 M, 10^−4 M, and 10^−5 M. The data from the blank and model control group were shared among the different drug concentration groups as a control.
(§1) Male SD rats were anesthetized with 3% chloral hydrate (300 mg/kg) through intraperitoneal injection. After being fixed in a supine position, the skin of the neck was cut about 3 cm, bluntly separated with a hemostat, and the trachea was exposed after the common carotid artery was separated. The distal end of the common carotid artery was ligated with a fine thread, and the proximal end was clamped with an arterial clamp for vascular intubation. After the intubation was fixed, the artery clamp was opened, and the blood was placed into a blood collection tube containing 3.8% trisodium citrate so that the blood was mixed well with the 3.8% trisodium citrate in a volume ratio of 9:1.
The prepared anticoagulant blood was mixed well and centrifuged for 10 minutes at 500 rpm, then the upper layer of plasma was aspirated to obtain platelet-rich plasma (PRP), and the PRP was centrifuged again for 5 minutes at 3,000 rpm. The supernatant was discarded, and the platelet precipitate was obtained, which was washed once with Ca^2+-free HEPES-Tyrode's buffer, then centrifuged at 3,000 rpm for 5 minutes. The supernatant was discarded, and the platelets were resuspended with Ca^2+-free HEPES-Tyrode's buffer to obtain the washed platelets.
First, 300 μL of Ca^2+-containing HEPES-Tyrode's solution was taken into the test cup, put into the test wells, and calibrated by pressing the “PPP” key. Subsequently, 240 μL of the washed platelets were added to the test cup, then added with 30 μL of different concentrations of drug solution, incubated for 10 minutes at 37° C. in a preheated bath, and then put into the test wells. 3 μL of 100× CaCl2 solution (final concentration of 0.2 g/L) and 30 μL of inducer (final concentration of AA of 800 μM) were added to the test wells, and then the “Start” key was pressed immediately. The maximum aggregation rate was recorded every 60 s. The measurement was repeated three times for each concentration for 10 minutes, and the aggregation curve was plotted.
The platelet aggregation inhibition rate was calculated with the following formula:
Inhibition rate (%)=(maximum aggregation rate in the model control group−maximum aggregation rate in the administration group)/maximum aggregation rate in the model control group×100%
All data were expressed as mean±standard deviation (mean±SD). SPSS 22.0 software was used for statistical analysis of the data. Intergroup data were analyzed using one-way ANOVA, with P<0.05 considered as statistically significant and P<0.01 considered as highly significant.

MCAO/R rats = assay: Therapeutic administration (i.v.) in middle cerebral artery occlusion/reperfusion (MCAO/R) rats; type: in vivo, rat; details: for Bleeding time / Brain water content (%) / Cerebral infarction rate (%) / Clotting time / Neurological function score: once a day for 3 days, mean ± SD, n = 8; for Neurological function score: modified Bederson score
Method: Male SD rats weighing 250 to 300 g were taken, and the rats in each group fasted for 12 hours before modeling, while water was not restricted. According to the method of Longa et al.^[1], a rat model of MCAO/R was established by occluding the blood flow of internal carotid artery using the thread embolization method. The rats were anesthetized with 3% chloral hydrate (300 mg/kg, 1 mL/100 g body weight) through intraperitoneal injection and fixed in the supine position on the operating table. A midline incision was made in the neck, and the right common carotid artery was isolated using forceps and threaded for later use. The external and internal carotid arteries were isolated from the bifurcation of the common carotid artery. A single thread was threaded through the internal carotid artery, and two threads were threaded through the external carotid artery. Both distal and proximal ends were ligated, and the middle part of the ligation site was cut using ophthalmic scissors. The proximal main trunk of the external carotid artery was isolated and reserved for later use. The prepared cotton thread was used to half-ligate the common carotid artery (tying a slipknot), and the thread prepared for the internal carotid artery was tightened with hemostatic forceps, temporarily occluding the blood flow of the internal carotid artery. A small incision at the proximal main trunk of the external carotid artery was made using ophthalmic scissors, and then, the fishing line was held with straight forceps, inserted from this incision, and slowly advanced through the isolated proximal main trunk of the external carotid artery towards the intracranial direction of the internal carotid artery. The advancement was stopped at a predetermined position, and then the thread of the internal carotid artery that was tightened with the hemostatic forceps was loosened. […] Another thread was threaded and tightened around the proximal main trunk of the external carotid artery and the fishing line that had already been inserted into the predetermined position. The half-ligated thread on the common carotid artery was then loosened, and the skin was subsequently sutured. After 2 hours of ischemia, a small section of the fishing line was pulled out. […] After rats in the blank control group were anesthetized, only the bifurcation of the internal and external carotid arteries was exposed without the occlusion of the MCA.
Successfully modeled rats (neurological function score of 3 after reperfusion) were taken and divided into 20 groups (8 rats for each) according to the random number table method. The groups were divided into a model control group, three dose groups (high, 12 mg/kg, 2.4 mg/mL; medium, 6 mg/kg, 1.2 mg/mL; low, 3 mg/kg, 0.6 mg/mL) for each of the six test compounds, and a positive drug Ozagrel group (6 mg/kg, 1.2 mg/mL), respectively. Both blank and model control groups were administered equal volumes of mixed solvents, and the rats in each group were administered by tail vein injection (i.v.) 2 hours after reperfusion, once a day for 3 consecutive days, with a volume of 0.5 mL/100 g body weight.
Ten minutes after the last administration, the neurological function of the animals was graded according to the modified Bederson scoring method. The standard is as follows[2]: • 0 point: no neurological symptoms; • 1 point: when the rat is suspended by lifting its tail, the forelimb on the surgical side of the rat was flexed and pressed against the chest wall; • 2 points: on a smooth plane, when the rat is pushed from the surgical side to the opposite side, the resistance is less than when it is moved to the same side; • 3 points: the animal moves around or in circles when moving freely; • 4 points: flaccid paralysis, no spontaneous movement of limbs.
After Bederson scoring, the rats were executed by cervical dislocation, and the whole brain was removed and weighed. After weighing, the whole brain was placed in a −20° C. refrigerator for 20 minutes. […]

[2] = system: AA-induced platelet aggregation; assay: Inhibitory effect on AA-induced platelet aggregation in rabbits in vitro; type: cell-based, rabbit; details: 1*10^−4 M; text conclusion (2)
Method: Several experimental groups were established, including a blank control group, an AA model control group, and various test compounds. Each test compound had three concentration groups: 10^−3 M, 10^−4 M, and 10^−5 M.
as §1, with “Rabbits were” for “Male SD rats were”, “with a 20% urethane solution (5 mL/kg body weight)” for “with 3% chloral hydrate (300 mg/kg)”, “about 6” for “about 3”, “9:1. […]” for “9:1.”
First, 300 μL of PPP was added to the test cup and put into the test wells, and calibrated by pressing the “PPP” key. […] The maximum aggregation rate within 4 minutes was measured. […]
The platelet aggregation inhibition rate was calculated with the following formula: […]
All data were expressed as mean standard deviation (mean b SD). […] Intergroup data were analyzed using one-way ANOVA, with P<0.05 considered as statistically significant and P<0.01 considered as highly significant.

[3] = medium dose 6 mg/kg i.v. (Ozagrel group 6 mg/kg)

## O=C(O)[C@@H]1C[C@H]1c1ccc(Cn2cnc(Cl)c2)cc1F [Compound 13, (1R,2R)-2-(4-((4-Chloro-1H-imidazol-1-yl)methyl)-2-fluorophenyl)cyclopropane-1-carboxylic acid]
[1]
  significant inhibition of AA-induced platelet aggregation: can significantly inhibit
MCAO/R rats; high dose 12 mg/kg i.v.
  Bleeding time: 301.25 ± 46.40 s
  Brain water content (%): 80.73 ± 1.10%
  Cerebral infarction rate (%): 14.30%
  Clotting time: 163.63 s
  Neurological function score: 1.50 ± 0.53
MCAO/R rats; low dose
  infarct size: can also significantly reduce
MCAO/R rats; low dose 3 mg/kg i.v.
  Bleeding time: 303.00 ± 39.59 s
  Brain water content (%): 80.87 ± 2.84%
  Cerebral infarction rate (%): 23.02%
  Clotting time: 146.94 ± 24.73 s
  Neurological function score: 2.00 ± 0.53
MCAO/R rats; medium and high doses
  coagulation time of rats: can significantly prolong
MCAO/R rats; [3]
  Bleeding time: 314.50 ± 41.83 s
  Brain water content (%): 80.58 ± 1.56%
  Cerebral infarction rate (%): 22.15%
  Clotting time: 164.56 s
  Neurological function score: 1.88 ± 0.64

## O=C(O)C1CN(c2ccc(Cn3ccnc3)nc2)C1 [Compound 56, 1-(6-((1H-Imidazol-1-yl)methyl)pyridin-3-yl)azetidine-3-carboxylic acid]
[2]
  significant inhibition of AA-induced platelet aggregation: can significantly inhibit

## O=C(O)/C=C/c1ccc(Cn2cnc(Cl)c2)cn1 [Compound 59, (E)-3-(5-((4-Chloro-1H-imidazol-1-yl)methyl)pyridin-2-yl)acrylic acid]
[2]
  significant inhibition of AA-induced platelet aggregation: can significantly inhibit
